Source: the NIST ThermoML archive (doi:10.1016/j.fluid.2008.08.001)
Numbers after ± are expanded uncertainties.

Tests used:
[1] = for vapor or sublimation pressure: Liquid
[2] = refractive index (Na D-line) (dimensionless); conditions: 298.1 K; 101.33 kPa; Liquid; Standard Abbe refractometry

| Compound | vapor or sublimation pressure ([1]; 468.96 K) | vapor or sublimation pressure ([1]; 473.96 K) | vapor or sublimation pressure ([1]; 478.65 K) | vapor or sublimation pressure ([1]; 485.91 K) | vapor or sublimation pressure ([1]; 488.5 K) | vapor or sublimation pressure ([1]; 490.22 K) | vapor or sublimation pressure ([1]; 496.8 K) | vapor or sublimation pressure ([1]; 500.18 K) | vapor or sublimation pressure ([1]; 505.08 K) | vapor or sublimation pressure ([1]; 510.7 K) | vapor or sublimation pressure ([1]; 519.03 K) | vapor or sublimation pressure ([1]; 525.3 K) | vapor or sublimation pressure ([1]; 532.77 K) | refractive index [2] | Normal melting temperature ([1]; Crystal, visual observation) |
| --- | --- | --- | --- | --- | --- | --- | --- | --- | --- | --- | --- | --- | --- | --- | --- |
| CCCCOC(=O)CCCCCCCCC(=O)OCCCC [dibutyl decanedioate] | 0.666 ± 0.044 kPa | 0.818 ± 0.05 kPa | 1.036 ± 0.059 kPa | 1.457 ± 0.078 kPa | 1.515 ± 0.081 kPa | 1.762 ± 0.093 kPa | 2.286 ± 0.12 kPa | 2.647 ± 0.14 kPa | 3.149 ± 0.16 kPa | 4.078 ± 0.21 kPa | 5.29 ± 0.27 kPa | 7.044 ± 0.35 kPa | 9.161 ± 0.46 kPa | 1.442 ± 0.0007 | – |
| O=C1C=CC(=O)O1 [maleic anhydride] | – | – | – | – | – | – | – | – | – | – | – | – | – | – | 52.5 ± 0.5 °C |
